Test results from patent publication US10758534B2 (Vertex Pharmaceuticals Incorporated, priority 2014, dated 2020).

Target: T1, F508del (Homo sapiens, UniProt P13569, DEL508-508)
T1 construct: expressed in transfected cells
Experiment: Protocol 1: membrane potential optical assay (FLIPR III, voltage sensing dye), identification of potentiator compounds
Assay type: cell-based
Conditions: Table 3, compounds of Table 1
Summary of the method: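 Mouse NIH 3T3 fibroblasts stably expressing F508del, temperature-corrected at 27 °C for 24 h, pretreated with compound, then loaded with voltage-sensing redistribution dye. Forskolin was added in a single step with a chloride gradient (chloride-free gluconate bath; Bath Solution #1 HEPES pH 7.4). Membrane-potential fluorescence read on FLIPR III.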

T1 sequence (P13569 with tags, fused parts or gaps DEL508-508): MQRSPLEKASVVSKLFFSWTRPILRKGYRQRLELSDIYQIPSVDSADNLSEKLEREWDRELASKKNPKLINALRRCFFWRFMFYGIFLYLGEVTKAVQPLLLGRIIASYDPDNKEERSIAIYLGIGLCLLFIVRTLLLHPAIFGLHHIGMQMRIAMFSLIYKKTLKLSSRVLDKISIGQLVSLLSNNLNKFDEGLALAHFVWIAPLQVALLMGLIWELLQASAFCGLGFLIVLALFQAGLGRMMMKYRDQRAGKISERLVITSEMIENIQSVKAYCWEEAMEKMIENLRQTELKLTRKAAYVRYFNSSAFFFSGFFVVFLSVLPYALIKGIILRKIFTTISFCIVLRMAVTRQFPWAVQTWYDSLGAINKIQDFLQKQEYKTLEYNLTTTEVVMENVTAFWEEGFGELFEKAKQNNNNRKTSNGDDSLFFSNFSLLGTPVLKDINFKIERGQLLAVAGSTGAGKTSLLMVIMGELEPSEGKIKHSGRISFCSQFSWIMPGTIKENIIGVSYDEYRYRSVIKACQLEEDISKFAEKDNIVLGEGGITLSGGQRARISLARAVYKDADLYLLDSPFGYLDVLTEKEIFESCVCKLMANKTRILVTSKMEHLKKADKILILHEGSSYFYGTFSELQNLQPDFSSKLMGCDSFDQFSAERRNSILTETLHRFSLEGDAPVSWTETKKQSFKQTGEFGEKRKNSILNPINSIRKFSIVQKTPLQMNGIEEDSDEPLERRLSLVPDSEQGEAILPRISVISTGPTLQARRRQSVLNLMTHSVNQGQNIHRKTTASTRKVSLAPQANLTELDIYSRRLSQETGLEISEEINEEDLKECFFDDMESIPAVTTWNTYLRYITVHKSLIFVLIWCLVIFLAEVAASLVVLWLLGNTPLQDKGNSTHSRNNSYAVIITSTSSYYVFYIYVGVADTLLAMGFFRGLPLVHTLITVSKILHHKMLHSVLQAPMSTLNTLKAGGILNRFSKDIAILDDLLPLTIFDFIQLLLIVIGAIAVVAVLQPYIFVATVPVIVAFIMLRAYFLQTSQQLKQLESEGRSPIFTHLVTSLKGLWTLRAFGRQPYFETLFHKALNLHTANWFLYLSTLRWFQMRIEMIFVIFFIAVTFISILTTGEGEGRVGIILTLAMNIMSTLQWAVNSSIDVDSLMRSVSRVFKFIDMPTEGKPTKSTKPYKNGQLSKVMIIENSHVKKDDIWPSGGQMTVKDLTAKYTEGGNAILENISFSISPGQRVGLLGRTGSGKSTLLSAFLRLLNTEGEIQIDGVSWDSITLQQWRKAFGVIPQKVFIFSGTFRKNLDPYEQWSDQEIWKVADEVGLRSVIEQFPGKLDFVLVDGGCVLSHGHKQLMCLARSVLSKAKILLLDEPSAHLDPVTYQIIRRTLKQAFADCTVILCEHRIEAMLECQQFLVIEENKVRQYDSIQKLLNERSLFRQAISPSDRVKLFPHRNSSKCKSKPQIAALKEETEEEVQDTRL

SMILES | EC30
COc1ccc(-c2cc(C(=O)NS(=O)(=O)c3cccc(N)c3)n(C(C)c3ccccc3)n2)cc1 (stereo not shown) [Compound 1024, N-(3-aminophenyl)sulfonyl-5-(4-methoxyphenyl)-2-(1-phenylethyl)pyrazole-3-carboxamide] | ++ (“++” means between 3 uM and 10 uM)
CC(C)Oc1ccc(-c2ccc(C(=O)NS(=O)(=O)c3cccc(N)n3)c(N(C)C3CCCC3)n2)cn1 [Compound 1025, N-[(6-amino-2-pyridyl)sulfonyl]-2-[cyclopentyl(methyl)amino]-6-(6-isopropoxy-3-pyridyl)pyridine-3-carboxamide] | +++ (“+++” means <3 uM)
CC(C)Oc1ccc(-c2ccc(C(=O)NS(=O)(=O)c3cccc(N)n3)c(NCc3ccccc3)n2)cn1 [Compound 1026, N-[(6-amino-2-pyridyl)sulfonyl]-2-(benzylamino)-6-(6-isopropoxy-3-pyridyl)pyridine-3-carboxamide] | ++ (“++” means between 3 uM and 10 uM)
Cc1cc(C)c(Oc2nc(-c3ccccc3)ccc2C(=O)NS(=O)(=O)c2cccc(NCCN)n2)c(C)c1 [Compound 1027, N-[[6-(2-aminoethylamino)-2-pyridyl]sulfonyl]-6-phenyl-2-(2,4,6-trimethylphenoxy)pyridine-3-carboxamide] | ++ (“++” means between 3 uM and 10 uM)
COCC1CCCN(c2nc(-c3cc(F)cc(OCC(C)C)c3)ccc2C(=O)NS(=O)(=O)c2ccn[nH]2)C1 (stereo not shown) [Compound 1028, 6-(3-fluoro-5-isobutoxy-phenyl)-2-[3-(methoxymethyl)-1-piperidyl]-N-(1H-pyrazol-5-ylsulfonyl)pyridine-3-carboxamide] | ++ (“++” means between 3 uM and 10 uM)
C[C@@H]1CC[C@H](C)N1c1nc(-c2ccc(F)cc2)ccc1C(=O)NS(=O)(=O)c1cccc(N)n1 [Compound 1029, N-[(6-amino-2-pyridyl)sulfonyl]-2-[(2S,5R)-2,5-dimethylpyrrolidin-1-yl]-6-(4-fluorophenyl)pyridine-3-carboxamide] | ++ (“++” means between 3 uM and 10 uM)
CCC1CCN(c2nc(-c3cc(F)cc(OCC(C)C)c3)ccc2C(=O)NS(=O)(=O)c2ccn[nH]2)CC1 [Compound 1030, 2-(4-ethyl-1-piperidyl)-6-(3-fluoro-5-isobutoxy-phenyl)-N-(1H-pyrazol-5-ylsulfonyl)pyridine-3-carboxamide] | +++ (“+++” means <3 uM)
CC(C)c1ccccc1Oc1nc(C(C)(C)C)ccc1C(=O)NS(=O)(=O)c1cccc(N)n1 [Compound 1031, N-[(6-amino-2-pyridyl)sulfonyl]-6-tert-butyl-2-(2-isopropylphenoxy)pyridine-3-carboxamide] | +++ (“+++” means <3 uM)
CNc1cccc(S(=O)(=O)NC(=O)c2ccc(-c3ccccc3)nc2Oc2c(C)cc(C)cc2C)n1 [Compound 1032, N-[[6-(methylamino)-2-pyridyl]sulfonyl]-6-phenyl-2-(2,4,6-trimethylphenoxy)pyridine-3-carboxamide] | +++ (“+++” means <3 uM)
COc1ccc(-c2ccc(C(=O)NS(=O)(=O)c3cc[nH]n3)c(Oc3c(C)cc(C)cc3C)n2)cc1 [Compound 1033, 6-(4-methoxyphenyl)-N-(1H-pyrazol-3-ylsulfonyl)-2-(2,4,6-trimethylphenoxy)pyridine-3-carboxamide] | +++ (“+++” means <3 uM)
COc1cccc(-c2ccc(C(=O)NS(=O)(=O)c3cccc(N)n3)c(Oc3c(C)cc(C)cc3C)n2)n1 [Compound 1034, N-[(6-amino-2-pyridyl)sulfonyl]-6-(6-methoxy-2-pyridyl)-2-(2,4,6-trimethylphenoxy)pyridine-3-carboxamide] | +++ (“+++” means <3 uM)
Cc1ccc(-c2ccc(C(=O)NS(=O)(=O)c3cccc(N)n3)c(Oc3c(C)cc(C)cc3C)n2)cc1 [Compound 1035, N-[(6-amino-2-pyridyl)sulfonyl]-6-(p-tolyl)-2-(2,4,6-trimethylphenoxy)pyridine-3-carboxamide] | +++ (“+++” means <3 uM)
Cc1ccccc1-c1nc(C(C)(C)C)ccc1C(=O)NS(=O)(=O)c1cccc(N)c1 [Compound 1036, N-(3-aminophenyl)sulfonyl-6-tert-butyl-2-(o-tolyl)pyridine-3-carboxamide] | + (“+” means greater than 10 uM)
CC1CCN(c2nc(C(C)(C)C)ccc2C(=O)NS(=O)(=O)c2ccc(N)cc2)CC1 [Compound 1037, N-(4-aminophenyl)sulfonyl-6-tert-butyl-2-(4-methyl-1-piperidyl)pyridine-3-carboxamide] | ++ (“++” means between 3 uM and 10 uM)
CC(C)(C)c1ccc(C(=O)NS(=O)(=O)c2cccc(N)n2)c(N2CCC(C(C)(C)O)CC2)n1 [Compound 1038, N-[(6-amino-2-pyridyl)sulfonyl]-6-tert-butyl-2-[4-(1-hydroxy-1-methyl-ethyl)-1-piperidyl]pyridine-3-carboxamide] | ++ (“++” means between 3 uM and 10 uM)
Cc1cc(C)c(CN2CCc3ccccc3CC2C(=O)NS(=O)(=O)c2ccccc2)c(C)c1 (stereo not shown) [Compound 1039, N-(benzenesulfonyl)-3-[(2,4,6-trimethylphenyl)methyl]-1,2,4,5-tetrahydro-3-benzazepine-4-carboxamide] | +++ (“+++” means <3 uM)

SMILES | EC30
CC(C)Oc1ccc(-c2ccc(C(=O)NS(=O)(=O)c3cccc(N)n3)c(N3C(C)CCC3(C)C)n2)cn1 (stereo not shown) [Compound 1040, N-[(6-amino-2-pyridyl)sulfonyl]-6-(6-isopropoxy-3-pyridyl)-2-(2,2,5-trimethylpyrrolidin-1-yl)pyridine-3-carboxamide] | +++ (“+++” means <3 uM)
CC(C)COc1cc(F)cc(-c2ccc(C(=O)NS(=O)(=O)c3ccn[nH]3)c(N3C[C@@H](C)CC3(C)C)n2)c1 [Compound 1041, 6-(3-fluoro-5-isobutoxy-phenyl)-N-(1H-pyrazol-5-ylsulfonyl)-2-[(4S)-2,2,4-trimethylpyrrolidin-1-yl]pyridine-3-carboxamide] | +++ (“+++” means <3 uM)
CC1CCN(c2nc(-c3cc(F)cc(OC(C)C)c3)ccc2C(=O)NS(=O)(=O)c2cc[nH]n2)CC1 [Compound 1042, 6-(3-fluoro-5-isopropoxy-phenyl)-2-(4-methyl-1-piperidyl)-N-(1H-pyrazol-3-ylsulfonyl)pyridine-3-carboxamide] | +++ (“+++” means <3 uM)
CC(C)Oc1ccc(-c2ccc(C(=O)NS(=O)(=O)c3cccc(N)n3)c(N3CCC(C(F)(F)F)CC3)n2)cn1 [Compound 1043, N-[(6-amino-2-pyridyl)sulfonyl]-6-(6-isopropoxy-3-pyridyl)-2-[4-(trifluoromethyl)-1-piperidyl]pyridine-3-carboxamide] | +++ (“+++” means <3 uM)
COc1ncc(-c2ccc(C(=O)NS(=O)(=O)c3cc[nH]n3)c(Oc3c(C)cc(C)cc3C)n2)cc1C [Compound 1044, 6-(6-methoxy-5-methyl-3-pyridyl)-N-(1H-pyrazol-3-ylsulfonyl)-2-(2,4,6-trimethylphenoxy)pyridine-3-carboxamide] | +++ (“+++” means <3 uM)
CCC(Oc1nc(C(C)(C)C)ccc1C(=O)NS(=O)(=O)c1cccc(N)n1)c1ccccc1 (stereo not shown) [Compound 1045, N-[(6-amino-2-pyridyl)sulfonyl]-6-tert-butyl-2-(1-phenylpropoxy)pyridine-3-carboxamide] | ++ (“++” means between 3 uM and 10 uM)
CC(C)(C)c1ccc(C(=O)NS(=O)(=O)c2cccc(N)n2)c(Oc2ccccc2)n1 [Compound 1046, N-[(6-amino-2-pyridyl)sulfonyl]-6-tert-butyl-2-phenoxy-pyridine-3-carboxamide] | ++ (“++” means between 3 uM and 10 uM)
Cc1ccc(-c2ccc(C(=O)NS(=O)(=O)c3nccnc3N)c(Oc3c(C)cc(C)cc3C)n2)cc1 [Compound 1047, N-(3-aminopyrazin-2-yl)sulfonyl-6-(p-tolyl)-2-(2,4,6-trimethylphenoxy)pyridine-3-carboxamide] | +++ (“+++” means <3 uM)
Cc1cc(C)c(Oc2nc(-c3ccc4c(c3)CCO4)ccc2C(=O)NS(=O)(=O)c2cccc(N)n2)c(C)c1 [Compound 1048] | +++ (“+++” means <3 uM)
Cc1cc(C)c(Oc2nc(-c3cc(F)ccc3O)ccc2C(=O)NS(=O)(=O)c2cccc(N)n2)c(C)c1 [Compound 1049] | +++ (“+++” means <3 uM)
Cc1cc(C)c(Oc2nc(C3CC3)ccc2C(=O)NS(=O)(=O)c2cccc(N)n2)c(C)c1 [Compound 1050, N-[(6-amino-2-pyridyl)sulfonyl]-6-cyclopropyl-2-(2,4,6-trimethylphenoxy)pyridine-3-carboxamide] | ++ (“++” means between 3 uM and 10 uM)
CC(C)COc1cc(F)cc(-c2ccc(C(=O)NS(=O)(=O)c3cccc(N)n3)c(N3CC[C@@H](C)C3)n2)c1 [Compound 1051, N-[(6-amino-2-pyridyl)sulfonyl]-6-(3-fluoro-5-isobutoxy-phenyl)-2-[(3R)-3-methylpyrrolidin-1-yl]pyridine-3-carboxamide] | +++ (“+++” means <3 uM)
Cc1cc(C)c(Oc2nc(C3=CCC(C)CC3)ccc2C(=O)NS(=O)(=O)c2ccc[nH]c2=O)c(C)c1 (stereo not shown) [Compound 1052, 6-(4-methylcyclohexen-1-yl)-N-[(2-oxo-1H-pyridin-3-yl)sulfonyl]-2-(2,4,6-trimethylphenoxy)pyridine-3-carboxamide] | +++ (“+++” means <3 uM)
CC(C)COc1cc(F)cc(-c2ccc(C(=O)NS(=O)(=O)c3cccc(N)n3)c(OCC3(F)COC3)n2)c1 [Compound 1053, N-[(6-amino-2-pyridyl)sulfonyl]-6-(3-fluoro-5-isobutoxy-phenyl)-2-[(3-fluorooxetan-3-yl)methoxy]pyridine-3-carboxamide] | ++ (“++” means between 3 uM and 10 uM)
Cc1cc(C)c(Oc2nc(C(C)(C)C)ccc2C(=O)NS(=O)(=O)c2cccc(NCCN)n2)c(C)c1 [Compound 1054, N-[[6-(2-aminoethylamino)-2-pyridyl]sulfonyl]-6-tert-butyl-2-(2,4,6-trimethylphenoxy)pyridine-3-carboxamide] | +++ (“+++” means <3 uM)
